According to patent US20120020915A1, “Compounds and Methods for Treating Cancer and Diseases of the Central Nervous System” (QUEENS UNIVERSITY AT KINGSTON, priority 2007, published 2012):
“Also recorded” adds a separate entry of the source.

Legend:
[1] = tested on: hHO-1 transfected primary rat astroglial cultures; experiment: Protein carbonyl assay (ELISA) in hHO-1 transfected rat astroglia, whole-cell and mitochondrial fractions; assay type: cell-based; conditions: whole cell and mitochondrial compartments; for oxidative protein damage (protein carbonyls) accruing from hHO-1 transfection: 6.5 μM; for dose dependence of attenuation of oxidative protein damage: transiently transfected rat astroglia, hydrochloride
Method: Cells were grown in Ham's F12 and high glucose DMEM (50:50 v/v) supplemented with 10 mM HEPES, 5% heat-inactivated horse serum, 5% heat-inactivated fetal bovine serum, and penicillin-streptomycin (50 U/mL and 50 μg/mL, respectively).
(§1) Upon reaching >90% confluence, 1×10^6 cells were transiently transfected with 4.0 μg of plasmid DNA-Lipofectamine 2000 complex using Lipofectamine 2000 method according to manufacturer instructions (Invitrogen). […] 12 μg of plasmid DNA and 16 μl of Lipofectamine 2000 reagent were diluted in 1.5 mL opti-MEM I reduced serum medium and incubated for 5 minutes at room temperature with gentle mixing. The two solutions were combined, incubated at room temperature for 20 minutes to promote formation of DNA-lipid complexes and administered to the cells. 2 mL opti-MEM I reduced serum medium was added to the flasks to ensure coverage of the monolayer by the transfection mixture. Following incubation for 6 hours at 37° C., the transfection mixture was replaced with 10 mL of complete media without antibiotics.
The cells were sonicated (Sonics & Materials, Danbury, Conn.) at a power level of 50 for 3×20 s in a cooled water bath. […] Whole-cell and mitochondrial preparations were assayed for protein carbonyls as described below.
Protein carbonyls were reacted with 2,4-dinitrophenylhydrazine (DNP) and the hydrazone adducts were detected with anti-DNP antisera. Quantification was achieved by comparison with oxidized BSA standards. Oxidized (carbonylated) BSA was prepared by reacting natural BSA (at 50 mg/mL in PBS) with hypochlorous acid (5 mM) for 1 h at 37° C., followed by overnight dialysis against PBS at 4° C. […] The pellet was resuspended in 2 mL of same buffer, sonicated on ice 2×15 s at 20 W and centrifuged for 20 min at 4° C. at 1,303×g. Protein concentration of supernatant was measured with the RC DC protein assay based on the Lowry protocol (Bio-Rad Laboratories, Hercules, Calif.). All samples were adjusted to 4.0 mg protein/mL. […] Five microliters aliquots of each reaction mixture were mixed with 1 mL PBS and 200 μL replicates were added per well to 96-well immunoplates and incubated overnight at 4° C. After washing with PBS, nonspecific binding sites were blocked with 0.1% Tween 20 in PBS. […] A 6-point standard curve of reduced and oxidized BSA was generated for each plate analyzed. Specific absorbance for each sample was calculated by subtracting basal absorbance of the DNP reagent from the total absorbance.

[2] = target: T1, heme oxygenase activity in hHO-1-transfected astrocytes (Homo sapiens, UniProt P09601); experiment: In vitro HO enzyme activity (bilirubin formation) in hHO-1 transfected cells; assay type: cell-based; conditions: 6.5 μM, 18 h; hydrochloride
T1 construct: containing the entire protein-coding region (866 bp) of the human HO-1 gene; expressed in transfected cells; host or cells: primary rat astrocytes (also rat C6 glioma and human pancreatic tumor cells), transient transfection with Lipofectamine 2000
T1 sequence (P09601 1-288): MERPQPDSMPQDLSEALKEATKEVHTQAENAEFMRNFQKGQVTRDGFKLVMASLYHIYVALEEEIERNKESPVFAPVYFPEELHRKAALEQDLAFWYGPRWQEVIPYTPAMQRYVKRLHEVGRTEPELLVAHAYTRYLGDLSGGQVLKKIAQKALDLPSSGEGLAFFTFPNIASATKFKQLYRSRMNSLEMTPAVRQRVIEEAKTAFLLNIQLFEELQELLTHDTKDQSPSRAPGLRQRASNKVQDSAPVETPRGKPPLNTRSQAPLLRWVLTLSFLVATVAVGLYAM
Method: as §1
Cytosol extracts were prepared for HO activity measurement by the method of Ryter (Ryter, Kvam, Tyrrell 2000). […] Protein concentration of supernatant was measured with Bradford method. […] HO activity was calculated as nanomoles bilirubin per miligram protein per min, assuming an extinction coefficient of 40/mM/cm in chloroform (see FIG. 8).

[3] = tested on: flag-tagged HO-1 protein; experiment: Western blot of flag-tagged HO-1 protein in transfected cells; assay type: cell-based, human; conditions: 6.5 μM, transiently transfected cells
Method: Cells were rinsed twice with cold PBS (pH 7.4) and scraped in iced lysis buffer consisting of 1% Nonidet P-40, 50 mM Tris.HCl (pH 7.4), 30 mM NaCl, 25 mM β-glycerophosphate, 10 mM EDTA, 10 mM EGTA, 1 mM MgCl2, and protease inhibitors (10 mM sodium fluoride, 50 μg/mL AEBBSF, 5 μg/mL leupeptin, 5 μg/mL pepstatin, 5 μg/mL aprotinin). Supernatants were obtained by centrifugation at 15,000 rpm for 15 min at 4° C. Protein contents were determined using the Bradford method. Twenty μg aliquots plus 6×SDS-PAGE loading buffer (300 mM Tris.HCl pH 6.8, 600 mM DTT, 12% SDS, 0.6% bromophenol blue, 60% glycerol) were subjected to 10% sodium dodecyl sulfate-polyacrylamide gel electrophoresis and transferred to the polyvinylidene fluoride membranes. Nonspecific binding was blocked by incubation in Tris buffer saline (pH 7.4) containing 3% nonfat milk and 0.1% Tween 20 for 1 h at room temperature. Blots were probed with mouse anti-FLAG monoclonal antibody (1:200 diluted) and anti-β-actin monoclonal antibody (1:500 diluted). The secondary antibody consisted of horseradish peroxidase-conjugated goat anti-mouse antibody (1:4000 dilution). Protein bands were visualized by enhanced chemiluminescence using ECL western blotting reagents.

| Structure (SMILES) | oxidative protein damage (protein carbonyls) accruing from hHO-1 transfection [1] | dose dependence of attenuation of oxidative protein damage [1] | heme oxygenase activity in hHO-1 transfected cells [2] | expression level of flag-tagged HO-1 protein [3] |
| --- | --- | --- | --- | --- |
| Cl.FC[C@@H]1CO[C@@](CCc2ccc(Cl)cc2)(Cn2ccnc2)O1 [QC-47, (2R,4S)-1-{2-[2-(4-Chlorophenyl)ethyl]-4-fluoromethyl-[1,3]dioxolan-2-ylmethyl}-1H-imidazole hydrochloride] | significantly attenuated oxidative protein damage | significant dose dependant attenuations of oxidative protein damage; also recorded: in a dose dependent manner significantly decreased the amount of oxidative damage | suppressed to levels akin to those of non-transfected and sham-transfected controls; also recorded: significantly attenuated heme oxygenase activity; also recorded: significantly decreased the activity of heme oxygenase-1 | without affecting the expression level |
| Brc1ccc(CCC2(Cn3ccnc3)OCCO2)cc1.Cl [QC-56, 1-((2-(2-(4-Bromophenyl)ethyl)-1,3-dioxolan-2-yl)methyl)-1H-imidazole hydrochloride] | significantly attenuated oxidative protein damage | significant dose dependant attenuations of oxidative protein damage; also recorded: in a dose dependent manner significantly decreased the amount of oxidative damage; also recorded: significant dose-dependant attenuations of oxidative protein damage | suppressed to levels akin to those of non-transfected and sham-transfected controls; also recorded: significantly attenuated heme oxygenase activity; also recorded: significantly decreased the activity of heme oxygenase-1 | without affecting the expression level |
